In US20240156854A1, “METHYLCOBALAMIN OPHTHALMIC PREPARATION AND USE THEREOF” (EYE INSTITUTE OF SHANDONG FIRST MEDICAL UNIVERSITY, priority 2022, published 2024):

What was measured:
[1] = tested on: Mouse model of neurotrophic keratitis; assay: Confocal laser microscope imaging of corneal nerves (β-tubulin III staining) in mouse model of neurotrophic keratitis; format: in vivo, C57BL/6 mice; conditions: 14 d after the operation
Method: (§1) (1) C57BL/6 mice, 6 to 8 weeks old, male, weighing 20 g to 25 g, were purchased from Beijing Vital River Laboratory Animal Technology Co., Ltd. Animal breeding was conducted in the Animal Laboratory of the Eye Institute of Shandong First Medical University. The temperature was controlled at 22±2° C., the humidity was controlled at 60±10%, a light and dark cycle was 12 h, and food and drink were given ad libitum.
(2) Experimental grouping: 30 of 6- to 8-week-old C57BL/6 male mice (body weight 20 g to 25 g) were randomly divided into 5 groups, 6 in each group, respectively: • 1. A control group • 2. An eye drop group with the control methylcobalamin ophthalmic drop Comparative Example 1 • 3. An eye drop group with a recombinant human nerve growth factor • 4. An eye drop group with methylcobalamin+proanthocyanidin (Example 1) • 5. A subconjunctival implantation group with a methylcobalamin hydrogel (Example 2) […]
Samples were taken 14 d after the operation. […] The cornea was washed 6 times with PBS, 10 min each time, the corneal epithelium was spread upward, and sealed with DAPI-containing anti-fluorescence quenching buffered glycerin, stored in the dark, and then imaged with a confocal laser microscope.

[2] = tested on: Mouse model of neurotrophic keratitis; assay: Slit lamp photography of the eye in mouse model of neurotrophic keratitis; format: in vivo, C57BL/6 mice; conditions: day 7, slit lamp; eye drops 4 times a day or subconjunctival hydrogel implant (about 0.02 mg)
Method: as §1
(2) Experimental grouping: 30 of 6- to 8-week-old C57BL/6 male mice (body weight 20 g to 25 g) were randomly divided into 5 groups, 6 in each group, respectively: • 1. A control group • 2. An eye drop group with the control methylcobalamin ophthalmic drop Comparative Example 1 • 3. An eye drop group with a recombinant human nerve growth factor • 4. An eye drop group with methylcobalamin+proanthocyanidin (Example 1) • 5. A subconjunctival implantation group with a methylcobalamin hydrogel (Example 2)
The mice were intraperitoneally anesthetized with a 0.6% pentobarbital sodium solution (1 ml/100 g), fixed on an operating table in a lateral position, and the bulbar conjunctiva was incised 90 degrees along the temporal corneoscleral limbus with Vannas scissors. The retroorbital venous plexus should not be damaged. […]

With “recombinant human nerve growth factor: recombinant human nerve growth factor eye drops, comparator group” the “regeneration of corneal nerve endings” value [1] was “regenerated” and the corneal neovascularization [2] was “not obvious”.
